Source: article doi:10.1101/2024.08.13.607785v1 (biorxiv, 2024)

Columns and labels:
Design in all cases: species or system mixed lysate of K562, MV4-11, THP-1, NCI-H1155
[1] = target: Serine/threonine-protein kinase 25 ; STK25 ; O00506 (Homo sapiens, UniProt O00506); details: binder
[2] = target: T1, Dual specificity mitogen-activated protein kinase kinase 5 ; MAP2K5 ; Q13163 (Homo sapiens, UniProt Q13163); details: DIA-MS residual binding; binder
T1 sequence (Q13163 1-448): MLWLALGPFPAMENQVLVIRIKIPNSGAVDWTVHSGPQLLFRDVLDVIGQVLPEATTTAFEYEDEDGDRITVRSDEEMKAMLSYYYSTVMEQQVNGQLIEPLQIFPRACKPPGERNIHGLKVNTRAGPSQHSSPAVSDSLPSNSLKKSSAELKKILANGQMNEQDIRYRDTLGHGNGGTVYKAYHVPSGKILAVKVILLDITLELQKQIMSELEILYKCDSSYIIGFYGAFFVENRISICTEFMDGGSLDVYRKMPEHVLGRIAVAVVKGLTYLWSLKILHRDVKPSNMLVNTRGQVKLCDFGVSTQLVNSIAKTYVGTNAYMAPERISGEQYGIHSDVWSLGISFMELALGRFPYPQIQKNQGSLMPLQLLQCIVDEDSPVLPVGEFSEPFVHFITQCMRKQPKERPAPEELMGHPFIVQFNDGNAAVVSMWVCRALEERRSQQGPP

[3] = target: T2, Discoidin domain-containing receptor 2 ; DDR2 ; Q16832 (Homo sapiens, UniProt Q16832); details: binder
T2 sequence (Q16832 1-855): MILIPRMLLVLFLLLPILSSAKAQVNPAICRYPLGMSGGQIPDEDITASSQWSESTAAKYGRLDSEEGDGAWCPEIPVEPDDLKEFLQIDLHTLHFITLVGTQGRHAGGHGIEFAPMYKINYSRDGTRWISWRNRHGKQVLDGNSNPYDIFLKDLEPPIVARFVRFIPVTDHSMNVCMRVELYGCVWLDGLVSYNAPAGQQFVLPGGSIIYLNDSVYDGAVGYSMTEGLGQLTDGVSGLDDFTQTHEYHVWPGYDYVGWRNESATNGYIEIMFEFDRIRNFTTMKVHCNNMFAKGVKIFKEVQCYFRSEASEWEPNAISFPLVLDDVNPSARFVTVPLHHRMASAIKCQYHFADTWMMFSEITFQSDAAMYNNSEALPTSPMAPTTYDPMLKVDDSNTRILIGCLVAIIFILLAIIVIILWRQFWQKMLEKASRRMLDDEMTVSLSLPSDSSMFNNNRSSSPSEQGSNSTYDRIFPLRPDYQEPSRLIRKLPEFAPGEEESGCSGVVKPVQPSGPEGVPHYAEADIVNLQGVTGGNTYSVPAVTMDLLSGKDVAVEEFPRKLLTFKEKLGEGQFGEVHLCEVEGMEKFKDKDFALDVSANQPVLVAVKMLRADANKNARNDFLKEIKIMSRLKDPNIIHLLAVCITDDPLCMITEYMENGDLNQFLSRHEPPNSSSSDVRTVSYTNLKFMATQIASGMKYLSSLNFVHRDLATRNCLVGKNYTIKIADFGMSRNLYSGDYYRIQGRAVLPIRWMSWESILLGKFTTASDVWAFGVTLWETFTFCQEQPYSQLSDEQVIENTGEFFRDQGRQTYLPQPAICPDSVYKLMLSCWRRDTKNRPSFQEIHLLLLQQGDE

[4] = target: T3, Cyclin-G-associated kinase ; GAK ; O14976 (Homo sapiens, UniProt O14976); details: DIA-MS residual binding; binder
T3 sequence (O14976 1-1311): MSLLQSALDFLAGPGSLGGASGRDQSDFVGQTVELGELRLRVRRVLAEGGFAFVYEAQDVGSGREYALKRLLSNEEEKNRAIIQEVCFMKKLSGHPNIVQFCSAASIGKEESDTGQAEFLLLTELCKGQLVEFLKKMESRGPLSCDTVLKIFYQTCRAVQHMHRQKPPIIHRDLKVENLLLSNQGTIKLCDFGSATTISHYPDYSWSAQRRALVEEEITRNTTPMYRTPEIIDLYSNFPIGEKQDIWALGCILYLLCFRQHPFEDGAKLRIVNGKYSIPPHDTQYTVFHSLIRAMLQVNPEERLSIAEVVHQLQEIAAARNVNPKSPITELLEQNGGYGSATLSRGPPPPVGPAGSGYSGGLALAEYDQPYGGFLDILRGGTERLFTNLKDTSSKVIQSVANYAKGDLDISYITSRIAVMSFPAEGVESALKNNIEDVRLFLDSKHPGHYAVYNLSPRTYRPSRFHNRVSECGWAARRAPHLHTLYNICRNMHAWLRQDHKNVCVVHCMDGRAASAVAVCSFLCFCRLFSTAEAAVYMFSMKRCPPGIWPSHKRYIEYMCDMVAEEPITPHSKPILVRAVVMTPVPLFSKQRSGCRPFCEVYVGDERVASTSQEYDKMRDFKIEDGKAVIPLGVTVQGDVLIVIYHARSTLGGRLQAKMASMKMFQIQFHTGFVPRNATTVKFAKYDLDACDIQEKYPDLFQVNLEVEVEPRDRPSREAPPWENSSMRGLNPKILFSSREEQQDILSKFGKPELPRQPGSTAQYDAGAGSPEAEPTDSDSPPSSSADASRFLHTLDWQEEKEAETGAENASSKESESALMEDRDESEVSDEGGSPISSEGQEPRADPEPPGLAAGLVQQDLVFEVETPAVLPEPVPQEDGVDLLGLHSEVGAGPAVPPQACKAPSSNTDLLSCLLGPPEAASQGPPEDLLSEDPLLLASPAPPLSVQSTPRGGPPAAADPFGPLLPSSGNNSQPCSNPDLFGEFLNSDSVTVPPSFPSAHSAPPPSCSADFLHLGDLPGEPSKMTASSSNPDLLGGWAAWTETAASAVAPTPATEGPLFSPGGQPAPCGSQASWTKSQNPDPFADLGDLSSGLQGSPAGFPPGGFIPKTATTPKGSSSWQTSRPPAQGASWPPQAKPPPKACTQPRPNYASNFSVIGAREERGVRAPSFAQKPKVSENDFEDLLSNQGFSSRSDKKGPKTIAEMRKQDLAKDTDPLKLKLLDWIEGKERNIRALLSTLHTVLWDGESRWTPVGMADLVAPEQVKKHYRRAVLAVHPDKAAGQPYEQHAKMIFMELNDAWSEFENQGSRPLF

Sequence of Serine/threonine-protein kinase 25 ; STK25 ; O00506 (O00506 whole entry, one chain of several): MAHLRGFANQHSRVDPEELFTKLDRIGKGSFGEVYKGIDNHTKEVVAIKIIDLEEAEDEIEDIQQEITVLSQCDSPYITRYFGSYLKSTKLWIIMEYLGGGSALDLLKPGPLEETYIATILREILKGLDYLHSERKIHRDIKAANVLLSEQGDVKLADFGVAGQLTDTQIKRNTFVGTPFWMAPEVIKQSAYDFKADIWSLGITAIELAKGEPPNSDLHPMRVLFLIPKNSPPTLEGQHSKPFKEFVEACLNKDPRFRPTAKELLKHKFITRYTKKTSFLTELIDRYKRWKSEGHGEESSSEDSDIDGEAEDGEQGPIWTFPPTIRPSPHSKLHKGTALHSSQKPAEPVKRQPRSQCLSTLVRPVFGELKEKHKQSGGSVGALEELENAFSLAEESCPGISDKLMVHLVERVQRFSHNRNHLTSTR

For `Cc1nc(Nc2ncc(C(=O)Nc3c(C)cccc3Cl)s2)cc(N2CCN(CCO)CC2)n1` [dasatinib], the “DIA-MS / % Intensity (30 µM/DMSO)” value [1] was 52%, the “DIA-MS / % Intensity (30 µM/DMSO)” value [2] was 35.82% and the “DIA-MS / % Intensity (30 µM/DMSO)” value [3] was 5.824%. The “DIA-MS / % Intensity (30 µM/DMSO)” value [4] was 4.611%.
